Assay results taken from PubChem BioAssay (NCI).
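In this assay, cells in 96-well plates receive the compound at five concentrations for 48 hours. Endpoints are linearly interpolated between the surrounding concentrations. TGI is the concentration that stops growth completely.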

How the values were obtained:
Test in all cases: NCI tumour cell line growth inhibition, 48 h
MALME-3M melanoma = test system: MALME-3M melanoma
MDA-N = test system: MDA-N
ACHN renal = test system: ACHN renal
RPMI-8226 leukemia = test system: RPMI-8226 leukemia
SF-539 CNS = test system: SF-539 CNS
CCRF-CEM leukemia = test system: CCRF-CEM leukemia
DU-145 prostate = test system: DU-145 prostate
UO-31 renal = test system: UO-31 renal
MOLT-4 leukemia = test system: MOLT-4 leukemia
COLO 205 colon = test system: COLO 205 colon
HL-60(TB) leukemia = test system: HL-60(TB) leukemia
MCF7 breast = test system: MCF7 breast
NCI-H460 lung = test system: NCI-H460 lung
OVCAR-8 ovarian = test system: OVCAR-8 ovarian
LOX IMVI melanoma = test system: LOX IMVI melanoma
HOP-62 NSCLC = test system: HOP-62 NSCLC
SNB-75 CNS = test system: SNB-75 CNS
A549 NSCLC = test system: A549 NSCLC
IGROV1 ovarian = test system: IGROV1 ovarian
NCI/ADR-RES ovarian = test system: NCI/ADR-RES ovarian
HCT-15 colon = test system: HCT-15 colon
OVCAR-3 ovarian = test system: OVCAR-3 ovarian
SF-268 CNS = test system: SF-268 CNS
HT29 colon = test system: HT29 colon
SK-OV-3 ovarian = test system: SK-OV-3 ovarian
A498 renal = test system: A498 renal
HCC-2998 colon = test system: HCC-2998 colon
CAKI-1 renal = test system: CAKI-1 renal
HS 578T breast = test system: HS 578T breast
OVCAR-4 ovarian = test system: OVCAR-4 ovarian
T-47D breast = test system: T-47D breast
KM12 colon = test system: KM12 colon
SK-MEL-5 melanoma = test system: SK-MEL-5 melanoma
NCI-H226 lung = test system: NCI-H226 lung
786-0 renal = test system: 786-0 renal
SK-MEL-28 melanoma = test system: SK-MEL-28 melanoma
NCI-H23 lung = test system: NCI-H23 lung
NCI-H522 lung = test system: NCI-H522 lung
TK-10 renal = test system: TK-10 renal
HOP-92 NSCLC = test system: HOP-92 NSCLC
U251 CNS = test system: U251 CNS
HCT-116 colon = test system: HCT-116 colon
BT-549 breast = test system: BT-549 breast
SR leukemia = test system: SR leukemia
K-562 leukemia = test system: K-562 leukemia
UACC-257 melanoma = test system: UACC-257 melanoma
OVCAR-5 ovarian = test system: OVCAR-5 ovarian
SW-620 colon = test system: SW-620 colon
SF-295 CNS = test system: SF-295 CNS
EKVX NSCLC = test system: EKVX NSCLC
SN12C renal = test system: SN12C renal
MDA-MB-231 breast = test system: MDA-MB-231 breast
PC-3 prostate = test system: PC-3 prostate
UACC-62 melanoma = test system: UACC-62 melanoma
MDA-MB-435 = test system: MDA-MB-435
RXF 393 renal = test system: RXF 393 renal
SK-MEL-2 melanoma = test system: SK-MEL-2 melanoma
M14 melanoma = test system: M14 melanoma
SNB-19 CNS = test system: SNB-19 CNS

Measured: TGI

O=c1c2c3c(sc2nc2n1N=C(c1ccc(Cl)cc1)CS2)CCCC3
not listed: SK-MEL-2 melanoma | M14 melanoma | SNB-19 CNS
> 100 µM: all other assays above

Clc1ccc(-c2nnc(-c3cccc4ccccc34)o2)cc1Cl
53.9 µM: IGROV1 ovarian
> 100 µM: all other assays above
